Source: patent publication EP4342467A1, “KU INHIBITORS FOR USE IN TUMOR THERAPY” (Masarykova Univerzita, priority 2022, dated 2024)
Like-named read-outs stand apart in the source and are kept apart here.

Legend:
[1] = system: HCT116 cells; assay: cell proliferation, ATPlite assay; format: cell-based; details: Homo sapiens, HCT-116, 120 h, read-out: Inhibition of cell proliferation IC50
Method: HCT116, U2OS and HeLa cells were grown in McCoy's 5a medium supplemented with 10% Fetal Bovine Serum, 2 mM L-Glutamine and Penicilin/Streptomycin 200 U/l each in the presence of Compound 1-9. After growth at 37 °C, 5% CO2 for 3 days, monolayer of cells was detached using TrypLE Express (Gibco), cells were counted using 0.4% trypan blue stain and hemocytometer. […] Number of viable cells was estimated using ATPlite kit (Perkin Elmer).

[2] = target: Ku complex (Homo sapiens, UniProt P12956+P13010); assay: microwell protein induced fluorescent enhancement assay (mwPIFE) of Ku-DNA binding; details: for IC50: estimated from the 0.5 to 8 µM concentration range, read-out: Inhibition of Ku-DNA binding IC50; for remaining activity at 8 µM: read-out: % binding at 8 µM (100% = 0.5% DMSO)
Method: A rapid method for detecting protein-nucleic acid interactions by protein induced fluorescence enhancement. Sci Rep 6, 39653. mwPIFE is based on enhanced fluorescence of cyanine fluorophores attached to nucleic acid probes upon protein binding. […] The probe was immobilized in 96 well plates through biotin (Btn) attached to one end of DNA and incubated with purified Ku complex (0.5 pmol) in 50 µl of binding buffer (10 mM calcium acetate, 60 mM potassium acetate, 20 mM TRISacetate pH 7.9, 100 mg BSA/1). Ku-DNA binding was calculated from altered fluorescence measured by a fluorescence plate reader (Valuchova et al., 2016). […]

[3] = system: HCT116 cells; assay: C-circle assay (extrachromosomal circular telomeric DNA); format: cell-based, human; details: C-circle assay in HCT116 cells treated for 3 to 7 days
Method: HCT116 cell were incubated for 3, 5 or 7 days in McCoy's 5a medium with 10% Fetal Bovine Serum, 2 mM L-Glutamine and Penicilin/Streptomycin 200 U/l each and supplemented with Compound 1-9. C-circle assay that utilizes rolling circle amplification of circular DNA by φ29 polymerase was performed as described in Henson, J.D., Lau, L.M., Koch, S., Martin La Rotta, N., Dagg, R.A., and Reddel, R.R. (2017). The C-Circle Assay for alternative-lengthening-of-telomeres activity. Methods 114, 74-84. Amplified circular telomeric DNA was detected by dot blot hybridization with P^32-labeled telomeric DNA oligonucleotide (5'-[…]-3' (SEQ ID NO: 6)) (Figure 4).

[4] = system: U2OS; assay: combination with BIBR1532, relative growth by ATPlite; format: cell-based, human; details: 10 µM BIBR1532, 0.25 µM iKU-1 or their combination, 4 days
[5] = system: HCT116; assay: as above; format: cell-based, human; details: HCT116; 10 µM BIBR1532, 0.25 µM iKU-1 or their combination; 4 days
Method: 10,000 HCT116 cells were seeded in 100 µl of McCoy's 5a medium supplemented with 10% Fetal Bovine Serum, 2 mM L-Glutamine and Penicilin/Streptomycin 200 U/l for 1 day in 96well plate and treated with 10 µM BIBR1532, 0.25 µM of iKU-1 or their combination for 4 days. Number of viable cells was measured by ATPlite kit (Perkin Elmer) and normalized to the treatment with 0.5% DMSO. The results presented in Table 2 show a synergistic effect of iKU-1 and BIBR1532 on the growth of HCT116 tumor cell line. Values in the table indicate relative growth assessed by ATPlite kit compared to the control sample treated with 0.5% DMSO after 4 days of treatment.

[6] = system: HeLa; assay: as above; format: cell-based, human; details: 10 µM BIBR1532, 0.25 µM iKU-1 or their combination, 4 days
[7] = system: A2780; assay: growth of A2780 cells by ATPlite, alone and in combination with Bleomycin; format: cell-based, human; details: A2780; 0.025 µg/ml Bleomycin, 0.5 µM iKU-1 or their combination; 7 days
Method: 2,000 A2780 cells were seeded in 100 µl of RPMI 1640 medium with 300 mg/l L-Glutamine and 10% Fetal Bovine Serum for 1 day in 96well plate and treated by 0.025 µg/ml of Bleomycin, 0.5 µM of iKu-1 or their combination for 7 days. Number of viable cells was measured by ATPlite kit (Perkin Elmer) and normalized to the treatment with 0.5% DMSO.
Values in the table indicate relative growth assessed by ATPlite kit compared to the control sample treated with 0.5% DMSO after 7 days of treatment.
2,000 SKOV3 and A2780 cells were seeded in 100 µl of McCoy's 5a or RPMI 1640 media, respectively, for one day and then incubated with iKU-1 for 7 days. Number of viable cells was measured by ATPlite kit (Perkin Elmer) and normalized to the treatment with 0.5% DMSO.

[8] = literature (Weterings et al. 2016); cited from earlier work
[9] = ATPlite assay in HCT116 cells treated for 5 days
[10] = mwPIFE, 8 µM inhibitor compared to 0.5% DMSO

Ku complex, sequence (P12956 whole entry): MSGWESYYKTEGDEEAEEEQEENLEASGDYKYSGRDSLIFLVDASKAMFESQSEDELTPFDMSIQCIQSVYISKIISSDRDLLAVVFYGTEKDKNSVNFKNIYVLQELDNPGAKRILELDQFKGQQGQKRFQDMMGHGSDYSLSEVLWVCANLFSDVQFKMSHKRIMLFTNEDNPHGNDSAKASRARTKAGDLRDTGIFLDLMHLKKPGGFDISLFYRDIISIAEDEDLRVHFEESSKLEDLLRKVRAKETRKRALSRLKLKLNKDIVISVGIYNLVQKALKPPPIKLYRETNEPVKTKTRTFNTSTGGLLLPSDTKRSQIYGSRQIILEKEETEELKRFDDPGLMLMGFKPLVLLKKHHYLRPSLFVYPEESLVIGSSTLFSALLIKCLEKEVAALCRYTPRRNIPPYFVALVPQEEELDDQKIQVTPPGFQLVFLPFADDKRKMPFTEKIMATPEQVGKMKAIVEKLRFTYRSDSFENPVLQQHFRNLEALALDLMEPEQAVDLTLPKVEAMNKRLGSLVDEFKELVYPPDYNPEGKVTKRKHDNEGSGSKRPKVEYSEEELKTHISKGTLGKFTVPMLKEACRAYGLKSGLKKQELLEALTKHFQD
Ku complex, sequence (P13010 whole entry): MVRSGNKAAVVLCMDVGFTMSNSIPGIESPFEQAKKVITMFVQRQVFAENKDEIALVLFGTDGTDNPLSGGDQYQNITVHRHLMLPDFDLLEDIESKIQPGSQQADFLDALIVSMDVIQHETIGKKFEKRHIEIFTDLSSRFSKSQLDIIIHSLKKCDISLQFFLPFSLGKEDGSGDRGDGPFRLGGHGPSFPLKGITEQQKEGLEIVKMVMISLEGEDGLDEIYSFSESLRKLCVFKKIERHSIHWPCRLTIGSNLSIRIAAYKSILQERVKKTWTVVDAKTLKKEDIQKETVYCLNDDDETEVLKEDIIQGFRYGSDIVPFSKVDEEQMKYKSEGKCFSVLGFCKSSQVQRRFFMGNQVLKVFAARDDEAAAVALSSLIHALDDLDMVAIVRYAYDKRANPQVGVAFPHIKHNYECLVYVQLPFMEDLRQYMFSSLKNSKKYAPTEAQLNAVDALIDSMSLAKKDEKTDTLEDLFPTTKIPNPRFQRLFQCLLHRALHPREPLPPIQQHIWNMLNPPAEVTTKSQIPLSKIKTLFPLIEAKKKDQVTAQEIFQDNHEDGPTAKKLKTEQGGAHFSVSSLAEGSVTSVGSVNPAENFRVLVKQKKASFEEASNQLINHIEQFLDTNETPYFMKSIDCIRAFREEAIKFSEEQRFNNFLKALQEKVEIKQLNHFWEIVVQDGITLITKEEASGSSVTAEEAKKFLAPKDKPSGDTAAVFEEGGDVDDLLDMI

Row | Compound | IC50 [1] | IC50 ([2]; mwPIFE) | remaining activity at 8 µM [2] | Concentration inducing c-circle formation [3] | further results
1 | CC(=O)Nc1ccc(-c2csc(NC(=O)c3cncc(Br)c3)n2)cc1 [Compound 6] | 20 µM | > 8 µM | 55% | – | –
2 | O=C(Nc1nc(-c2cccnc2)cs1)c1cncc(Br)c1 [Compound 7] | > 20 µM | > 8 µM | 55% | 50 µM | –
3 | O=C(Nc1nc(-c2ccccn2)cs1)c1cccc(Br)c1 [Compound 3] | – | – | – | – | IC50 [1, 9]: < 5 µM; remaining activity at 8 µM [2, 10]: 76%
4 | O=C(Nc1nc(-c2ccccn2)cs1)c1cccnc1 [Compound 2] | – | – | – | 5 µM | IC50 [1, 9]: < 5 µM; remaining activity at 8 µM [2, 10]: 97%
5 | O=C(Nc1nc(-c2ccccc2)cs1)c1cncc(Br)c1 [Compound 8] | > 20 µM | > 8 µM | 71% | 50 µM | –
6 | CC(=O)NCCc1ccc(-c2csc(NC(=O)c3cncc(Br)c3)n2)cc1 [Compound 5] | < 5 µM | > 8 µM | 75% | – | –
7 | C/C(=C\C(=O)Nc1ccccc1C(=O)O)c1ccc2ccccc2c1 [BIBR1532, reference compound] | – | – | – | – | relative growth assessed by ATPlite kit compared to the control sample treated with 0.5% DMSO [4]: 0.88; relative growth assessed by ATPlite kit compared to the control sample treated with 0.5% DMSO [5]: 0.88; relative growth assessed by ATPlite kit compared to the control sample treated with 0.5% DMSO [6]: 0.92
8 | Cc1ccc(C(=O)Nc2nc(-c3ccccc3)cs2)cc1 [Compound 9] | – | > 8 µM | – | 20 µM | IC50 [1, 9]: 9 µM; remaining activity at 8 µM [2, 10]: 99%
9 | Bleomycin [reference compound] | – | – | – | – | relative growth assessed by ATPlite kit compared to the control sample treated with 0.5% DMSO [7]: 1.00
10 | O=C(Nc1nc(-c2ccccn2)cs1)c1ccc(NC2CC2)nc1 [Compound 4] | 8 µM | 7 µM | 47% | 10 µM | –
11 | COc1ccc(CCNc2ncc3c(=O)n(-c4cccc(F)c4)c(=O)[nH]c3n2)cc1OC [STL127705] | – | – | – | – | concentration conferring enhanced sensitivity to irradiation [8]: 20 to 30 µM
